Patent US12385076B2, “Preparation and application of high-activity and high-safety cardamine violifolia selenoprotein standard sample” (priority 2022, dated 2025)

System: rat liver
Experiment: Safety animal testing: 3-month repeated oral administration, liver lesions
Format: in vivo
Settings: male rats, repeated oral administration for 3 months; dose equivalent to 96 μgSe/kg BW for the human body

O=[Se](O)O [sodium selenite]
liver lesions: caused liver lesions
